Reference: publication PMC3463587, “A Series of Beta-Carboline Derivatives Inhibit the Kinase Activity of PLKs” (PLoS ONE, 2012)

How the values were obtained:
MG63 cells = assay: MTT cell proliferation assay, MG63; assay type: cell-based; conditions: Homo sapiens, MG-63, 48 hr
From the text: (§1) BI2536 was purchased from Selleck (Selleck, USA).

[1] = system: cyclin B1 protein in HeLa cells; assay: Cyclin B1 protein level (Western blotting, FACS); assay type: cell-based, human; conditions: 1.21 µM, 24 hr
Procedure: As the inhibitory kinase for cyclin-dependent kinase (CDK), Wee1 is one of the substrates of PLK1 and this phosphorylation stimulates Wee1 degradation. We expect that the inhibition of PLK1 impairs the phosphorylation of Wee1, thereby resulting in elevated Wee1 protein levels. To test this possibility, we examined the protein levels of Wee1 in HeLa cells after treatment with 1.21 µM beta-carboline compounds for 24 hr. […] PLK1 also phosphorylates cyclin B1 and this phosphorylation promotes the nuclear localization of cyclin B1 [36]. After treatment with these beta-carboline compounds, a slight increase of cyclin B1 protein was observed (Figure 6B), and this increase could be a consequence of accumulation of cells in G2/M phase. However, the change of cyclin B1 levels is much less significant compared to the increase of Wee1 levels after treatment with these compounds.
HeLa cells were incubated with or without 1.21 µM DH281, DH285 and DH287 for 24 hr. The cells were washed twice with cold 1×PBS and lysed in RAPI buffer (Applygen technologies Inc.) for 30 min and centrifuged at 14,000 rpm for 20 min at 4°C. We separated 15 µl of total protein (1 µg/ µl) with 12% SDS-PAGE gels and transferred the proteins to PVDF membrane. […] The protein bands were detected using ECL System (Piscataway, New Jersey, USA). […]

CDK1/cyclinB(h) = CDK1/cyclinB(h) (Homo sapiens, UniProt P06493); assay: In vitro kinase assay CDK1/cyclinB (33P-ATP); assay type: biochemical
Sequence of CDK1/cyclinB(h) (P06493 whole entry): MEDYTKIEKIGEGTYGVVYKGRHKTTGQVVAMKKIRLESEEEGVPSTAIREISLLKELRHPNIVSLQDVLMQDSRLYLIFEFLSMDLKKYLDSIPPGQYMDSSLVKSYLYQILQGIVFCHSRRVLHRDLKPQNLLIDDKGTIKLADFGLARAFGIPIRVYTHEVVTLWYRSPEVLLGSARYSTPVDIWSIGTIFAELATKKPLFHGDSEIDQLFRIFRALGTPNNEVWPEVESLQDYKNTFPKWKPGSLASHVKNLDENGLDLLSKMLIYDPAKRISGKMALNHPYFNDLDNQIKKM
Sequence of CDK1/cyclinB(h) (P14635 whole entry partner): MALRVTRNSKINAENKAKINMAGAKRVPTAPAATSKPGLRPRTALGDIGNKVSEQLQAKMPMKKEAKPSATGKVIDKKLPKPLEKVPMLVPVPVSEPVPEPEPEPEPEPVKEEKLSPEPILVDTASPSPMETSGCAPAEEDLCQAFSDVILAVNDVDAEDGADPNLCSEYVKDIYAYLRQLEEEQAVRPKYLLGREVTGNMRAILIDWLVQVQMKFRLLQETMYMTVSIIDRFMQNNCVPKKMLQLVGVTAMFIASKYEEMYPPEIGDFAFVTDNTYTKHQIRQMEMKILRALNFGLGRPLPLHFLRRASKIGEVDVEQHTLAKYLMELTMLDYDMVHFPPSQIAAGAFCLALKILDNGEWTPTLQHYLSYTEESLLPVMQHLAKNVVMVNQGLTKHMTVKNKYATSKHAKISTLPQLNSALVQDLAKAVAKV
Procedure: The inhibition of PLK1 kinase activity was assessed using the Cyclex PLK1 Assay/Inhibitor Screening Kit (MBL International Corporation, Japan). The kit includes anti-phospho-threonine polyclonal antibody (PPT-07) and peroxidase coupled anti-rabbit IgG antibody as a reporter in a 96-well ELSIA format. Compounds were used at the concentrations from 10^− ^3 to 10^2 µg/ml and the absorbance was determined at 450 nm. A similar protocol was used to determine the kinase inhibition for PLK2, PLK3, Aurora A and Aurora B. The kinase activity of CDK1/cyclinB and CDK2/cyclinE was analyzed in the presence of serially diluted inhibitors. For each reaction, 20 ng of recombinant kinase was used and […] casein from bovine milk (Sigma) was added as the kinase substrate. The kinase reaction buffer contains 8 mM MOPS pH7.0, 0.2 mM EDTA, 0.1 mg/ml histone H1, 10 mM and MgAcetace and [γ^− ^33P-ATP] (500 cpm/pmol). The reaction was initiated by adding the MgATP mix. After incubation for 40 minutes at room temperature, the reaction was stopped by the addition of 3% phosphoric acid solution. We spotted 10 µl of the reaction mixture onto a P30 filtermat and washed three times for 5 min with 75 mM phosphoric acid and once with methanol prior to drying and scintillation counting.

MRC5 cells = assay: cells; conditions: Homo sapiens, MRC5, 48 h, read-out: IC50 MRC5, MTT, 48 hr, non-cancer cells
Procedure: All the beta-carboline derivatives were provided by Xinjiang Huashidan Pharmaceutical Co. Ltd. The culture media and fetal bovine serum (FBS) were purchased from Hyclone (Hyclone Laboratories Inc., USA). […] All the cell lines were obtained from the Cell Culture Centre, Institute of Basic Medical Science, Chinese Academy of Medical Science and incubated at 37°C supplied with 5% CO2. HeLa cells were grown in standard DMEM with 10% FBS.
MRC5, HeLa, HepG2, PC3 and MG63 cells were seeded at 3000–6000 cells/well (200 µl/well) in a 96-well plate and incubated overnight. Then different concentrations of compounds were added into the cell cultures with a final concentration of 0.1% DMSO and incubated for an additional 48 hr. After that, 22 µl MTT solution (5 mg/ml) was added into each well and incubated at 37°C for 4 hr.

[2] = system: cdc5-2 mutant yeast cells; assay: Yeast growth inhibition (MIC), cdc5-2 mutant; conditions: 25°C, 24 hr
Procedure: The Cdc5 kinase is the functional homologue of PLK1 in budding yeast and the incubation of cdc5-2 mutants at 37°C impairs the kinase activity and stops cell growth. […] We also compared the sensitivity of wild-type and cdc5-2 mutant cells to the selected compounds at different concentrations. […] The temperature sensitive cdc5-2 mutants and wild-type strains were used. […] After incubation at 25°C for 24 hr, the growth of the yeast cells was determined by measuring OD600.

HeLa cells = assay: FITC-Annexin V/PI apoptosis assay, HeLa; assay type: cell-based, human
From the text: Staining with Annexin V–FITC and propidium iodide (PI) is commonly used to distinguish apoptotic, necrotic, and dead cells. PI is impermeant to live cells and apoptotic cells at early stages, but it stains dead cells and apoptotic cells at late stages through its binding to the nucleic acids. Apoptotic cells in early or late stages are stained positively for Annexin V-FITC that binds to phosphotidylserine. We used FACS analysis to determine the proportion of HeLa cells positive for Annexin V-FITC (FITC), PI, or both. The HeLa cells with PI^−/PI^+ FITC^+ were counted as apoptotic cells (Figure 5). […] However, 16.19% (3.96+12.23) of HeLa cells became FITC positive after treatment with 1.05 µM DH281 for 48 hr. The treatment with 5.25 µM DH281 induced apoptosis among 89.6% (89.51+0.09) of HeLa cells (Table 5). […] In contrast to HeLa cells, the induction of apoptosis by DH281 was much less efficient in non-cancer MRC5 cells (Table 5). Therefore, we conclude that the treatment with compounds DH281, DH285 and DH287 induces substantial apoptosis in HeLa cells, but non-cancer MRC5 cells are much less sensitive to the treatment. The distinct apoptotic responses of HeLa and MRC5 cells to beta-carboline compounds could explain the selectivity of PLK1 inhibitors toward cancer cells.
HeLa cells were either treated with 0, 0.21, 1.05 and 5.25 µM of DH281, DH285 and DH287 for 48 hr, or treated with 1.21 µM compounds for 24, 48 and 72 hr, while MRC5 cells were exposed to compounds at 0, 0.21, 1.05, and 5.25 µM for 48 hr. The cultured cells were harvested, washed three times with PBS, and resuspended in 500 µl binding buffer (10 mM Hepes/sodium hydroxide (pH7.4), 140 mM sodium chloride, and 2.5 mM CaCl2). Then 5 µl FITC-labeled Annexin V (Zhongshan JinQiao Biotechnology Ltd., Beijing) was added and the cells were incubated in the dark for 10 min. We added 5 µl of propidium iodide (PI) (10 µg/ml in binding buffer) to each sample before flow cytometry analysis.

HepG2 cells = assay: MTT cell proliferation assay, HepG2; assay type: cell-based; conditions: Homo sapiens, 48 hr
From the text: as §1

| Structure (SMILES) | IC50 (MG63 cells) [µM] | cyclin B1 protein level [1] | IC50 (CDK1/cyclinB(h)) [µM] | IC50 (MRC5 cells) [µM] | difference in the MICs, cdc5-2 compared to wild-type cells [2] [fold] | PI+ FITC+ (late apoptotic cells) (HeLa cells; 0.21 µM, 48 hr) [%] | PI+ FITC− (dead cells) (HeLa cells; 0.21 µM, 48 hr) [%] | PI− FITC+ (early apoptotic cells) (HeLa cells; 0.21 µM, 48 hr) [%] | PI− FITC− (live cells) (HeLa cells; 0.21 µM, 48 hr) [%] | PI+ FITC+ (late apoptotic cells) (HeLa cells; 1.05 µM, 48 hr) [%] | PI+ FITC− (dead cells) (HeLa cells; 1.05 µM, 48 hr) [%] | PI− FITC+ (early apoptotic cells) (HeLa cells; 1.05 µM, 48 hr) [%] | PI− FITC− (live cells) (HeLa cells; 1.05 µM, 48 hr) [%] | PI+ FITC+ (late apoptotic cells) (HeLa cells; 1.21 µM, 24 hr) [%] | PI+ FITC− (dead cells) (HeLa cells; 1.21 µM, 24 hr) [%] | PI− FITC+ (early apoptotic cells) (HeLa cells; 1.21 µM, 24 hr) [%] | PI− FITC− (live cells) (HeLa cells; 1.21 µM, 24 hr) [%] | PI+ FITC+ (late apoptotic cells) (HeLa cells; 1.21 µM, 48 hr) [%] | PI+ FITC− (dead cells) (HeLa cells; 1.21 µM, 48 hr) [%] | PI− FITC+ (early apoptotic cells) (HeLa cells; 1.21 µM, 48 hr) [%] | also measured |
| --- | --- | --- | --- | --- | --- | --- | --- | --- | --- | --- | --- | --- | --- | --- | --- | --- | --- | --- | --- | --- | --- |
| Cc1c2c(cc[n+]1Cc1ccccc1)c1ccc(OCc3ccc(F)cc3)cc1n2CCCc1ccccc1 [DH281] | 1.6 ± 0.15 | did not show a significant increase of cyclin B1 protein | 42.1 | 4.73 ± 0.51 | 2 to 4 | 3.22 | 3.24 | 0.97 | 92.57 | 3.96 | 10.22 | 12.23 | 73.59 | 10.65 | 2.52 | 1.42 | 85.41 | 8.91 | 3.31 | 16.20 | FITC positive (apoptotic) cells, early + late (HeLa cells; 1.05 µM, 48 hr): 16.19%; PI− FITC− (live cells) (HeLa cells; 1.21 µM, 48 hr): 71.58%; PI+ FITC+ (late apoptotic cells) (HeLa cells; 1.21 µM, 72 hr): 5.97%; PI+ FITC− (dead cells) (HeLa cells; 1.21 µM, 72 hr): 1.41%; PI− FITC+ (early apoptotic cells) (HeLa cells; 1.21 µM, 72 hr): 39.54%; PI− FITC− (live cells) (HeLa cells; 1.21 µM, 72 hr): 53.08%; FITC positive (apoptotic) cells, early + late (HeLa cells; 5.25 µM, 48 hr): 89.6%; PI+ FITC+ (late apoptotic cells) (HeLa cells; 5.25 µM, 48 hr): 0.09%; PI+ FITC− (dead cells) (HeLa cells; 5.25 µM, 48 hr): 0.37%; PI− FITC+ (early apoptotic cells) (HeLa cells; 5.25 µM, 48 hr): 89.51%; PI− FITC− (live cells) (HeLa cells; 5.25 µM, 48 hr): 10.03%; IC50 (HepG2 cells): 2.24 ± 0.04 µM |
| Cc1c2c(cc[n+]1Cc1ccccc1)c1ccc(OCc3ccccc3)cc1n2Cc1ccccc1 [DH287] | 1.79 ± 0.29 | did not show a significant increase of cyclin B1 protein | 39.4 | 3.03 | 2 to 4 | 2.16 | 3.48 | 1.12 | 93.25 | 5.20 | 9.81 | 7.20 | 77.8 | 10.88 | 3.56 | 10.39 | 75.17 | 8.31 | 7.05 | 25.70 | PI− FITC− (live cells) (HeLa cells; 1.21 µM, 48 hr): 58.94%; PI+ FITC+ (late apoptotic cells) (HeLa cells; 1.21 µM, 72 hr): 1.19%; PI− FITC+ (early apoptotic cells) (HeLa cells; 1.21 µM, 72 hr): 55.98%; PI− FITC− (live cells) (HeLa cells; 1.21 µM, 72 hr): 38.27%; PI+ FITC+ (late apoptotic cells) (HeLa cells; 5.25 µM, 48 hr): 5.58%; PI+ FITC− (dead cells) (HeLa cells; 5.25 µM, 48 hr): 8.71%; PI− FITC+ (early apoptotic cells) (HeLa cells; 5.25 µM, 48 hr): 65.36%; PI− FITC− (live cells) (HeLa cells; 5.25 µM, 48 hr): 20.35%; IC50 (HepG2 cells): 10.7 ± 0.31 µM |
